Laboratory results: US9765101B2, “Organo-arsenoxide compounds and use thereof” (NewSouth Innovations Pty Limited, priority 2006, dated 2017)
Where “and” joins values, the source holds several entries; their conditions need not be identical. Equal entries are not always repeated. Entries after “also recorded” stand apart in the source; their conditions may differ.

Experiments:
BAE cells [1] = assay: BAE cell proliferation assay (MTT, 72 h); format: cell-based, bovine
Procedure: (§1) BAE cells were from Cell Applications, San Diego, Calif. and BxPC-3, HT1080, LLC, PANC-1, MCF-7, HCT116 and K562 cells were from ATCC, Bethesda, Md. NB4 and MDCK2 cells were from Shane Supple (Kanematsu Laboratories, Royal Prince Alfred Hospital, Sydney, Australia) and P. Borst (The Netherlands Cancer Institute, Amsterdam, The Netherlands). BAE, HT1080, Panc-1, MCF-7, HCT116, MDCK2 and LLC cells were cultured in DMEM. NB4, K562 and BxPC-3 cells were cultured in RPMI medium. The cells were supplemented with 10% foetal calf serum (FBS), 2 mM L-glutamine, and 1 U·mL-1 penicillin/streptomycin. Cell culture plasticware was from Techno Plastic Products (Trasadingen, Switzerland). All other cell culture reagents were from Gibco (Gaithersburg, Md.).
(§2) Adherent cells were allowed to adhere overnight.

BAE cells [2] = assay: BAE cell viability / cytotoxicity (propidium iodide flow cytometry); format: cell-based, bovine; conditions: read-out: IC50 for loss of viability
Source text: as §2

[3] = system: NB4 cells (acute promyelocytic leukaemia); assay: NB4 cell proliferation assay (MTT, 72 h); format: cell-based, human
Procedure: as §1, §2

[4] = system: K562 cells (chronic myelogenous leukaemia); assay: K562 cell proliferation assay (MTT, 72 h); format: cell-based; conditions: K562, human chronic myelogenous leukaemia; read-out: IC50 for proliferation arrest
Procedure: as §1, §2

[5] = system: MDCK2 cells (kidney epithelial); assay: MDCK2 cell proliferation assay (MTT, 72 h); format: cell-based, dog
Procedure: as §1, §2

[6] = system: PANC-1 cells (pancreatic carcinoma); assay: PANC-1 cell proliferation assay (MTT, 72 h); format: cell-based; conditions: PANC-1, human pancreatic carcinoma; read-out: IC50 for proliferation arrest
Procedure: as §1, §2

[7] = system: MCF-7 cells (mammary carcinoma); assay: MCF-7 cell proliferation assay (MTT, 72 h); format: cell-based; conditions: MCF-7, human mammary carcinoma; read-out: IC50 for proliferation arrest
Procedure: as §1, §2

[8] = system: BxPC-3 cells (pancreatic carcinoma); assay: BxPC-3 cell proliferation assay (MTT, 72 h); format: cell-based; conditions: BxPC-3, human pancreatic carcinoma; read-out: IC50 for proliferation arrest
Procedure: as §1, §2

[9] = system: isolated rat liver mitochondria; assay: Mitochondrial swelling assay (mitochondrial permeability transition); format: biochemical; conditions: 100 μM
Procedure: Mitochondria were isolated from the livers of ˜250 g male Wistar rats using differential centrifugation as previously described (Dilda et al., 2005a; Don et al., 2003). The final mitochondrial pellet was resuspended in 3 mM HEPES-KOH, pH 7.0 buffer containing 213 mM mannitol, 71 mM sucrose and 10 mM sodium succinate at a concentration of 30 mg of protein per mL. Mitochondrial permeability transition induction was assessed spectrophotometrically by suspending the liver mitochondria at 0.5 mg of protein per mL at 25° C. in 3 mM HEPES-KOH, pH 7.0 buffer containing 75 mM mannitol, 250 mM sucrose, 10 mM sodium succinate, and 2 μM rotenone. Swelling was measured by monitoring the associated decrease in light scattering at 520 nm using a SpectraMax Plus microplate reader (Molecular Devices, Palo Alto, Calif.).

BAE cells [10] = assay: Accumulation of arsenical in BAE cells (cytosolic arsenic by inductively coupled plasma spectrometry); format: cell-based, bovine; conditions: 50 μM
Procedure: BAE cells were seeded at a density of 1.5×10^6 cells in Petri dishes and allowed to adhere overnight. Cells were incubated with 50 μM (S)-Penicillamine-arsenoxide at discrete times for up to 2 h at 37° C. and then washed three times with ice-cold PBS. The washed cells were lysed in 1 mL of 70% w/w nitric acid. Petri dishes were then washed twice with 1 mL of PBS and kept at 4° C. until use. Samples were diluted 10-fold and analysed for arsenic atoms using an Elan 6100 Inductively Coupled Plasma Spectrometer (Perkin Elmer Sciex Instruments, Shelton, Conn.).

[11] = system: MDCKII cells over-expressing MRP1; conditions: MD/MRP1; 96 h; relative to IC50 of non-transfected parental cells
Procedure: (§3) Transfectants of the Madin-Darby canine kidney II (MDCKII) polarised epithelial cell line, over-expressing multidrug resistance-associated proteins (MRP) 1, 2 or 3, have been described (Evers et al., 2000; Kool et al., 1999), as have the MEF/MDR1 clone H4 over-expressing human MDR1 or BCRP (Dilda et al., 2005b). Cells were grown and maintained as adherent monolayers in DMEM containing 10% calf serum (Cosmic™, Hyclone, Tauranga, New Zealand), 100 μg·mL^−1 penicillin and 60 μg·mL^−1 streptomycin. Cytotoxicity assays were performed as described previously (Allen et al., 1999).
(§4) Mammalian cells over-expressing MRP1, 2, 3 or 6, or MDR1 or BCRP were tested for resistance to (S)-Penicillamine-arsenoxide. MRP1, MRP2 or MRP3 was over-expressed in the canine kidney epithelial MDCKII cell line, while MRP6, MDR1 or BCRP was over-expressed in the murine embryo fibroblast MEF3.8 line. Cells were exposed to the indicated concentrations of (S)-Penicillamine-arsenoxide for 96 h and the number of viable cells measured and expressed relative to the number of untreated cells. Resistance factor is calculated relative to the (S)-Penicillamine arsenoxide IC50 for proliferation arrest of non-transfected parental cells.

[12] = system: MDCKII cells over-expressing MRP2; conditions: MD/MRP2; 96 h; relative to IC50 of non-transfected parental cells
Procedure: as §3, §4

[13] = system: MDCKII cells over-expressing MRP3; conditions: MD/MRP3; 96 h; relative to IC50 of non-transfected parental cells
Procedure: as §3, §4

[14] = system: MEF3.8 cells over-expressing BCRP; conditions: MEF/BCRP; 96 h; relative to IC50 of non-transfected parental cells
Procedure: as §3, §4

[15] = system: MEF3.8 cells over-expressing MDR1; conditions: MEF/MDR1; 96 h; relative to IC50 of non-transfected parental cells
Procedure: as §3, §4

[16] = system: MEF3.8 cells over-expressing MRP6; conditions: MEF/MRP6; 96 h; relative to IC50 of non-transfected parental cells
Procedure: as §3, §4

BAE cells [17] = assay: BAE proliferation with glutathione depletion by BSO; format: cell-based, bovine; conditions: BAE cells co-treated with BSO, 72 h
Procedure: FIG. 12. Depletion of cellular glutathione increases (S)-Penicillamine-arsenoxide anti-proliferative activity. BAE cells were co-treated with (S)-Penicillamine-arsenoxide and the indicated concentrations of BSO for 72 h and the IC50 for proliferation arrest was calculated.
Treatment of BAE cells with glutathione reduced GSAO inhibition of BAE cell proliferation, while blocking de novo synthesis of glutathione with buthionine sulfoximine (BSO), an inhibitor of the γ-glutamyl cysteine synthase, enhanced the proliferation arrest by almost 100-fold (Dilda et al., 2005b).

MRP1/2 = assay: Effect of MRP1/2 inhibitors 4H10 and MK-571 on accumulation and anti-proliferative activity in BAE cells
Procedure: The data points and error bars are the mean±SD of quadruplicate determinations and is representative of two experiments. […] The MRP inhibitors were incubated for 30 min with the cells prior to incubation with (S)-Penicillamine-arsenoxide for 72 h. The data points and error bars are the mean±SD of triplicate determinations. *** is p<0.001, ** is p<0.01
BAE, NB4, K562, MDCK2, HT1080, LLC, HCT116, Panc-1, MCF-7 and BxPC-3 cells were seeded at a density of 1.5×10^3, 3×10^3, 4×10^3, 5×10^2, 2×10^3, 5×10^2, 5×10^2, 6×10^3, 6×10^3 and 1×10^4 cells per well, respectively, into 96-well plates. Adherent cells were allowed to adhere overnight. They were then cultured for 72 h in medium containing 10% fetal calf serum and (S)-Penicillamine-arsenoxide. Viable cells were determined by incubating cells with the tetrazolium salt MTT (Sigma, St. Louis, Mo.), which is metabolized by viable cells to form insoluble purple formazan crystals. DMSO was added to lyse cells, the contents of the wells were homogenized and the absorbance measured at 550 nm. Cell number in the untreated control was normalized as 100%, and viable cell number for all treatments was expressed as percentage of control. The cytotoxic effects of (S)-Penicillamine-arsenoxide were assayed by flow cytometry with propidium iodide. BAE cells were seeded at a density of 5×10^4 cells per well into 12-well plates, allowed to adhere overnight, then treated for 48 h with GSAO. […] The combined cells were pelleted, resuspended in 0.5 mL serum-free medium containing 1 μg·mL^−1 propidium iodide (Molecular Probes, Eugene, Oreg.) and analysed by flow cytometry.
BAE cells were seeded at a density of 1.5×10^6 cells in Petri dishes and allowed to adhere overnight. Cells were incubated with 50 μM (S)-Penicillamine-arsenoxide at discrete times for up to 2 h at 37° C. and then washed three times with ice-cold PBS. The washed cells were lysed in 1 mL of 70% w/w nitric acid. […] Samples were diluted 10-fold and analysed for arsenic atoms using an Elan 6100 Inductively Coupled Plasma Spectrometer (Perkin Elmer Sciex Instruments, Shelton, Conn.).

With CC(C)(SCC(=O)Nc1ccc([As](O)O)cc1)[C@@H](N)C(=O)O [(S)-Penicillamine-arsenoxide, 4-(N—(S-penicillaminylacetyl)amino)phenylarsinous acid] as the compound, how does the “times more effective than GSAO at blocking proliferation and reducing the viability of endothelial cells” value (BAE cells [1]) read?
Its value is about 25 times.

And the IC50 (BAE cells [1]; 72 h, read-out: IC50 for proliferation arrest)?
The IC50 was 400 nM and 430 nM.

What about the IC50 (BAE cells [2]) of the same compound?
Its IC50 is 3.5 µM.

And the IC50 ([3]; NB4, human acute promyelocytic leukaemia, read-out: IC50 for proliferation arrest)?
Its IC50 is 700 nM.

What about the “effects on APL cells compared to arsenic trioxide” value ([3]; NB4 cells, 72 h) of the same compound?
The value was “equivalent to arsenic trioxide; also recorded: as good an inhibitor of APL cell proliferation as arsenic trioxide”.

What about the IC50 [4] of the same compound?
The IC50 was 1400 nM.

And the “sensitivity of BAE cells relative to kidney epithelial cells” value ([5]; BAE vs MDCK2)?
Its value is 5.6 fold.

And the IC50 ([5]; MDCK2, dog kidney epithelial, read-out: IC50 for proliferation arrest)?
Its IC50 is 2400 nM.

What about the IC50 [6] of the same compound?
Its IC50 is 6.5 µM.

And the IC50 [7]?
The IC50 was 9 µM.

And the IC50 [8]?
The IC50 was 13 µM.

What about the “time for half-maximal swelling of isolated mitochondria, times faster compared to GSAO” value [9] of the same compound?
The value was “approximately 4 times”.

What about the “initial rate of accumulation” value (BAE cells [10]) of the same compound?
The value was 69 pmol per 10^6 cells per min.

And the “Resistance Factor” value [11]?
The value was 3.7.

What about the “Resistance Factor” value [12] of the same compound?
The value was 4.6.

And the “Resistance Factor” value [13]?
The value was 0.8.

What about the “Resistance Factor” value [14] of the same compound?
Its value is 1.1.

And the “Resistance Factor” value [15]?
The value was 1.2.

And the “Resistance Factor” value [16]?
The value was 1.3.

What about the “enhancement of IC50 for proliferation arrest by BSO” value (BAE cells [17]) of the same compound?
The value was “approximately 25 fold”.

And the “substrate status for MRP1/2” value (MRP1/2)?
The value was “substrate for MRP1/2”.

What about the “anti-proliferative effect in presence of MRP1/2 inhibitors” value (MRP1/2; 0.3 μM compound, 4H10 2 μM or MK-571 15 μM, 72 h) of the same compound?
The value was “more potent anti-proliferative effect”.

What about the “accumulation in presence of MRP1/2 inhibitors 4H10 and MK-571” value (MRP1/2; 50 μM compound, 4H10 5 μM or MK-571 25 μM) of the same compound?
The value was “More (S)-Penicillamine-arsenoxide accumulated in BAE cells”.
